IC50 data for 39 molecules are collected here from US10934304B2, “Spirocyclic compounds” (Recurium IP Holdings, LLC, priority 2016, dated 2021).

As a reminder, the IC50 is the concentration that gives 50% inhibition.

Assay [1] deals with A375 (melanoma) cells. Nature of the assay: Proliferation Assay (CellTiter-Glo). Format: cell-based. The conditions noted are these: 3 days incubation, CellTiter-Glo luminescence. Here is the method:
A375 (melanoma), Colo-205 (colon cancer), Miapaca (pancreatic), HPAFII (pancreatic), sNF02.0 (neurofibromatosis type 1), sNF96.2 (neurofibromatosis type 1) and 8505 (Thyroid) cells were grown and maintained in RPMI-1640 medium containing 100 U/mL penicillin-streptomycin and 10% fetal bovine serum. Cells were in growth medium in 96-well opaque-walled clear bottom plates and incubated in the CO2 incubator overnight before treatment. Cells were treated with compounds diluted in DMSO and a 10 point 3-fold serial dilutions were done. Plates were placed in 37° C., 5% CO2 to incubate for 3 days. Before they were developed by adding 100 μL of CellTiter-Glo reagent (Promega) to the assay plate, plates were shaken briefly for 2 mins and allowed to incubate at room temperature for 10 mins. The bottom of the plates was pasted with white back seal and luminescence was recorded with Flexstation3 with setting of luminescence, integration time 500 ms.
Compounds of Formula (I), (II) and (III) are active in this assay as noted in Table 2.
In general terms: ATP-based viability assays read luminescence as a measure of living cells.

The target of assay [2] is ERK2 (Homo sapiens (Human), UniProt P28482). Nature of the assay: Active ERK1 and ERK2 Kinase Assay (Mobility Shift Assay). Format: biochemical. The conditions noted are these: activated ERK2, Mobility Shift Assay. As to the method: Activated ERK1 and ERK2 activity was determined in a Mobility Shift Assay (MSA) format as follows: Compound and kinase solution were prepared with assay buffer (20 mM HEPES, 0.01% Triton X-100, 2 mM DTT, pH7.5) and mixed and incubated in for 30 mins at rt. ERK1 & ERK2 were then activated by the addition of F1-Substrate, ATP and metal solution and incubated for 1 h at rt. After 1 h, the reaction was terminated by the addition of […] of Termination Buffer (QuickScout Screening Assist MSA; Carna Biosciences) to the well. The reaction mixture was applied to LabChip™ system (PerkinElmer), and the product and substrate peptide peaks were separated, analyzed and quantitated. The kinase reaction is evaluated by the product ratio calculated from peak heights of product (P) and substrate(S) peptides (P/(P+S)).
Chain of ERK2 (P28482 whole entry): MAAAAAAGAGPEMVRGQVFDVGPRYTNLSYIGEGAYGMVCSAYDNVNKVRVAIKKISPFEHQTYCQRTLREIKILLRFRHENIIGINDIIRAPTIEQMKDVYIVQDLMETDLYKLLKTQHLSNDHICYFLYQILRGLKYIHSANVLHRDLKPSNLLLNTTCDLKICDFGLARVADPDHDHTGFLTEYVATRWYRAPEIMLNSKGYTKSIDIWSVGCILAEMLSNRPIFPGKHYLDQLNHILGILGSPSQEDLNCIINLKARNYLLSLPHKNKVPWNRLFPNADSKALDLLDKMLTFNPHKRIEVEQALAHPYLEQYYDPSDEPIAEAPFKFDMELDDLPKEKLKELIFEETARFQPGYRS

On to `CC(C)Oc1ccc(-c2n[nH]c3ccc(N4CCC5(CCN(CC(=O)N6CCN(c7ccc(-c8ncn(C)n8)cc7)CC6C)C5)C4=O)nc23)cn1` (mixture of isomers) [Example 85], for which the IC50 in assay [1] is no more than 500 nM.

Molecule `CC(C)Oc1ccc(-c2n[nH]c3ccc(N4CCC5(CCN(C(C)C(=O)N6CC=C(c7ncc(-c8ncn(C)n8)s7)CC6)C5)C4=O)nc23)cn1` (mixture of isomers) [Example 95] had a concentration for half-maximal inhibition (IC50) in assay [1] of no less than 1000 nM.

For the molecule `CC(C(=O)N1CC=C(c2ncc(-c3ncn(C)n3)s2)CC1)N1CCC2(CCN(c3ccc4[nH]nc(-c5ccc(F)cc5)c4n3)C2=O)C1` (mixture of isomers) [Example 96], in assay [1], the IC50 is no less than 1000 nM.

Consider `CC(C)Nc1cc(-c2c[nH]c(C(=O)N[C@H](CO)c3cccc(Cl)c3)c2)c(Cl)cn1` [BVD-523, reference compound], for which the IC50 in assay [1] (Homo sapiens, A-375, 72 h) was no more than 500 nM.

Turning to `CC(C)Oc1ccc(-c2n[nH]c3ccc(N4CC[C@]5(CCN(CC(=O)N6CC=C(c7ccc(-c8ncn(C)n8)cc7)CC6)C5)C4=O)c(F)c23)cn1` [Example 1, (S)-2-(4-Fluoro-3-(6-isopropoxypyridin-3-yl)-1H-indazol-5-yl)-7-(2-(4-(4-(1-methyl-1H-1,2,4-triazol-3-yl)phenyl)-5,6-dihydropyridin-1(2H)-yl)-2-oxoethyl)-2,7-diazaspiro[4.4]nonan-1-one], the IC50 in assay [1] (Homo sapiens, A-375, 72 h) is no less than 1000 nM; in assay [2], no less than 250 nM.

With `COc1ccc(-c2n[nH]c3ccc(N4CC[C@]5(CCN(CC(=O)N6CC=C(c7ccc(-c8ncn(C)n8)cc7)CC6)C5)C4=O)cc23)cn1` [Example 2], the IC50 in assay [1] (Homo sapiens, A-375, 72 h) was no more than 500 nM; in assay [2], no more than 50 nM.

In the case of `Cn1cnc(-c2ccc(C3=CCN(C(=O)CN4CC[C@]5(CCN(c6ccc7[nH]nc(N8CCC(F)(F)CC8)c7c6)C5=O)C4)CC3)cc2)n1` [Example 3, (S)-2-(3-(4,4-difluoropiperidin-1-yl)-1H-indazol-5-yl)-7-(2-(4-(4-(1-methyl-1H-1,2,4-triazol-3-yl)phenyl)-5,6-dihydropyridin-1 (2H)-yl)-2-oxoethyl)-2,7-diazaspiro[4.4]nonan-1-one], the IC50 in assay [1] (Homo sapiens, A-375, 72 h) was 500 to 1000 nM; in assay [2] it was no more than 50 nM.

Consider `Cc1ncc(-c2n[nH]c3ccc(N4CC[C@]5(CCN(CC(=O)N6CC=C(c7ccc(-c8ncn(C)n8)cc7)CC6)C5)C4=O)nc23)s1` [Example 30], for which the IC50 in assay [1] (Homo sapiens, A-375, 72 h) is no more than 500 nM.

In turn, `COc1ccc(F)c(-c2n[nH]c3ccc(N4CC[C@]5(CCN(CC(=O)N6CCC(c7ccc(-c8ncn(C)n8)cc7)CC6)C5)C4=O)cc23)n1` [Example 75] gave an IC50 in assay [1] of no more than 500 nM.

For `CC(C)Oc1cnc(-c2n[nH]c3ccc(N4CC[C@]5(CCN(CC(=O)N6CC=C(c7ccc(-c8ncn(C)n8)cc7)CC6)C5)C4=O)cc23)c(F)c1` [Example 78], the half-maximal inhibitory concentration (IC50) in assay [1] was no less than 1000 nM.

In turn, `CC(C)Oc1ccc(-c2n[nH]c3ccc(N4CCC5(CCN(CC(=O)N6CC=C(c7ccc(-c8ncn(C)n8)cc7)CC6)C5)C4=O)nc23)cn1` (stereo not drawn) [Example 83] showed an IC50 in assay [1] of no more than 500 nM.

As to `CC(C)Oc1ccc(-c2n[nH]c3ccc(N4CC[C@]5(CCN(CC(=O)N6CCC(c7ncc(-c8ncn(C)n8)s7)CC6)C5)C4=O)nc23)cn1` [Example 86], the concentration for half-maximal inhibition (IC50) in assay [1] is no more than 500 nM.

As for `CC(C)Oc1ccc(-c2n[nH]c3ccc(N4CC[C@]5(CCN(CC(=O)N6CCN(c7ncc(-c8ncn(C)n8)s7)CC6)C5)C4=O)nc23)cn1` [Example 87], the IC50 in assay [1] is no more than 500 nM.

Molecule `CCn1cnc(-c2cnc(C3=CCN(C(=O)CN4CC[C@]5(CCN(c6ccc7[nH]nc(-c8ccc(OC(C)C)nc8)c7n6)C5=O)C4)CC3)s2)n1` [Example 88] had an IC50 in assay [1] of no more than 500 nM.

Consider `Cn1cnc(-c2cnc(C3=CCN(C(=O)CN4CC[C@]5(CCN(c6ccc7[nH]nc(-c8ccc(OC9CCC9)nc8)c7n6)C5=O)C4)CC3)s2)n1` [Example 90], for which the IC50 in assay [1] is no more than 500 nM.

`CC(C)Oc1ccc(-c2n[nH]c3ccc(N4CC[C@]5(CCN(CC(=O)N6CC=C(c7ncc(-c8ncn(C)n8)s7)CC6)C5)C4=O)nc23)cc1` [Example 94]: in assay [1], the IC50 is no more than 500 nM.

In turn, `CC(C)Oc1ccc(-c2n[nH]c3ccc(N4CC[C@]5(CCN(CC(=O)N6CC=C(c7ccc(-c8ncn(CCN(C)C)n8)cc7)CC6)C5)C4=O)nc23)cn1` [Example 97] came in with an IC50 in assay [1] of no more than 500 nM.

For the molecule `CC(C)Oc1ccc(-c2n[nH]c3ccc(N4CC[C@]5(CCN(CC(=O)N6CC=C(c7ccc(-c8cn(C)cn8)cc7)CC6)C5)C4=O)nc23)cn1` [Example 98], the IC50 in assay [1] is no less than 1000 nM.

In the case of `CC(C)Oc1ccc(-c2n[nH]c3ccc(N4CC[C@]5(CCN(CC(=O)N6CC=C(c7ncc(-c8cn(C)cn8)s7)CC6)C5)C4=O)nc23)cn1` [Example 99], in assay [1], the IC50 is no more than 500 nM.

Molecule `Cc1n[nH]c2ccc(-c3n[nH]c4ccc(N5CC[C@]6(CCN(CC(=O)N7CC=C(c8ccc(-c9ncn(C)n9)cc8)CC7)C6)C5=O)nc34)cc12` [Example 100] showed an IC50 in assay [1] of no more than 500 nM.

Take `Cc1noc2ccc(-c3n[nH]c4ccc(N5CC[C@]6(CCN(CC(=O)N7CC=C(c8ccc(-c9ncn(C)n9)cc8)CC7)C6)C5=O)nc34)cc12` [Example 101]: the IC50 in assay [1] (Homo sapiens, A-375, 72 h) is no more than 500 nM.

For `CC(C)Oc1ccc(-c2n[nH]c3ccc(N4CC[C@]5(CCN(CC(=O)N6CC=C(c7ccc(-c8ncn(C)n8)cc7)CC6)C5)C4=O)nc23)cc1` [Example 103], in assay [1] (Homo sapiens, A-375, 72 h), the IC50 was no more than 500 nM.

In assay [1] (Homo sapiens, A-375, 72 h), `CC(C)Oc1ccc(-c2n[nH]c3ccc(N4CC[C@]5(CCN(CC(=O)N6CC=C(c7ccc(-c8ncn(C)n8)cn7)CC6)C5)C4=O)nc23)cc1` [Example 104] gave an IC50 of no more than 500 nM.

`CC(C)Oc1ccc(-c2n[nH]c3ccc(N4CC[C@]5(CCN(CC(=O)N6CC=C(c7ccc(-c8ncn(C)n8)nc7)CC6)C5)C4=O)nc23)cc1` [Example 105] came in with an IC50 in assay [1] (Homo sapiens, A-375, 72 h) of 500 to 1000 nM.

On to `COc1cc(-c2n[nH]c3ccc(N4CC[C@]5(CCN(CC(=O)N6CC=C(c7ccc(-c8ncn(C)n8)cc7)CC6)C5)C4=O)nc23)ccc1OC(C)C` [Example 107], for which the IC50 in assay [1] (Homo sapiens, A-375, 72 h) is no more than 500 nM.

In the case of `COc1cc(-c2n[nH]c3ccc(N4CC[C@]5(CCN(CC(=O)N6CC=C(c7ncc(-c8ncn(C)n8)s7)CC6)C5)C4=O)nc23)ccc1OC(C)C` [Example 108], the IC50 in assay [1] (Homo sapiens, A-375, 72 h) is no more than 500 nM.

In assay [1] (Homo sapiens, A-375, 72 h), `CC(C)Oc1ccc(-c2n[nH]c3ccc(N4CC[C@]5(CCN(CC(=O)N6CC=C(c7ccc(-c8ncn(C)n8)cc7)CC6)C5)C4=O)cc23)cc1` [Example 109] came in with an IC50 of no more than 500 nM.

The molecule `CC(C)Oc1ccc(-c2n[nH]c3ccc(N4CC[C@]5(CCN(CC(=O)N6CC=C(c7ncc(-c8ncn(C)n8)s7)CC6)C5)C4=O)cc23)cc1` [Example 110] gave a half-maximal inhibitory concentration (IC50) in assay [1] (Homo sapiens, A-375, 72 h) of no more than 500 nM.

`CC(C)n1cc(-c2n[nH]c3ccc(N4CC[C@]5(CCN(CC(=O)N6CC=C(c7ccc(-c8ncn(C)n8)cc7)CC6)C5)C4=O)nc23)ccc1=O` [Example 111]: the IC50 in assay [1] (Homo sapiens, A-375, 72 h) is no more than 500 nM.

`CC(C)Oc1ccc(-c2n[nH]c3ccc(N4CC[C@]5(CCN(CC(=O)N6CCN(c7ncc(-c8ncn(C)n8)s7)CC6)C5)C4=O)nc23)cc1` [Example 112] came in with an IC50 in assay [1] (Homo sapiens, A-375, 72 h) of no more than 500 nM.

For `Cn1cnc(-c2cnc(C3=CCN(C(=O)CN4CC[C@]5(CCN(c6ccc7[nH]nc(C8CC8)c7n6)C5=O)C4)CC3)s2)n1` [Example 113], the IC50 in assay [1] (Homo sapiens, A-375, 72 h) is no more than 500 nM.

Turning to `CC(C)Oc1ccc(-c2n[nH]c3ccc(N4CC[C@]5(CCN(CC(=O)N6CCN(c7ccc(-c8ncn(C)n8)cc7)C[C@H]6C)C5)C4=O)nc23)cn1` [Example 114], in assay [1] (Homo sapiens, A-375, 72 h), the IC50 is no less than 1000 nM.

Molecule `CC(C)Oc1ccc(-c2n[nH]c3ccc(N4CC[C@]5(CCN(CC(=O)N6CCN(c7ccc(-c8ncn(C)n8)cc7)C[C@@H]6C)C5)C4=O)nc23)cn1` [Example 115] showed an IC50 in assay [1] (Homo sapiens, A-375, 72 h) of no more than 500 nM.

The molecule `CC(C)Oc1ccc(-c2n[nH]c3ccc(N4CC[C@]5(CCN(CC(=O)N6CC=C(c7ccc(-c8ncn(C)n8)cc7)CC6)C5)C4=O)nc23)cc1F` [Example 116] yielded an IC50 in assay [1] of no more than 500 nM.

Turning to `CC(C)Oc1ccc(-c2n[nH]c3ccc(N4CC[C@]5(CCN(CC(=O)N6CC=C(c7ccc(-c8ncn(C)n8)c(F)c7)CC6)C5)C4=O)nc23)cc1F` [Example 117], the IC50 in assay [1] was no more than 500 nM.

`CC(C)Oc1ccc(-c2n[nH]c3ccc(N4CC[C@]5(CCN(CC(=O)N6CC=C(c7ncc(-c8ncn(C)n8)s7)CC6)C5)C4=O)nc23)cc1F` [Example 118] displayed an IC50 in assay [1] of no more than 500 nM.

Molecule `Cn1cnc(-c2ccc(C3=CCN(C(=O)CN4CC[C@]5(CCN(c6ccc7[nH]nc(-c8ccc(F)c(N9CCCC9)n8)c7c6)C5=O)C4)CC3)cc2)n1` [Example 119] yielded an IC50 in assay [1] of 500 to 1000 nM.

In assay [1] (Homo sapiens, A-375, 72 h), `Cn1nccc1Nc1nccc(-c2ccn([C@H](CO)c3ccc(Cl)c(F)c3)c(=O)c2)n1` [GDC-0994, reference compound] displayed a 50% inhibitory concentration (IC50) of 500 to 1000 nM.

Molecule `O=C(Nc1ccc2[nH]nc(-c3ccncc3)c2c1)[C@@H]1CCN(CC(=O)N2CCN(c3ccc(-c4ncccn4)cc3)CC2)C1` [SCH772984, reference compound] displayed an IC50 in assay [1] (Homo sapiens, A-375, 72 h) of no more than 500 nM.
